In this assay the target is PIK3CA (human) (UniProt P42336). In words: Assessment of PIK3CA Kinase Activity.
Sequence of PIK3CA (human) (P42336 whole entry, looked up): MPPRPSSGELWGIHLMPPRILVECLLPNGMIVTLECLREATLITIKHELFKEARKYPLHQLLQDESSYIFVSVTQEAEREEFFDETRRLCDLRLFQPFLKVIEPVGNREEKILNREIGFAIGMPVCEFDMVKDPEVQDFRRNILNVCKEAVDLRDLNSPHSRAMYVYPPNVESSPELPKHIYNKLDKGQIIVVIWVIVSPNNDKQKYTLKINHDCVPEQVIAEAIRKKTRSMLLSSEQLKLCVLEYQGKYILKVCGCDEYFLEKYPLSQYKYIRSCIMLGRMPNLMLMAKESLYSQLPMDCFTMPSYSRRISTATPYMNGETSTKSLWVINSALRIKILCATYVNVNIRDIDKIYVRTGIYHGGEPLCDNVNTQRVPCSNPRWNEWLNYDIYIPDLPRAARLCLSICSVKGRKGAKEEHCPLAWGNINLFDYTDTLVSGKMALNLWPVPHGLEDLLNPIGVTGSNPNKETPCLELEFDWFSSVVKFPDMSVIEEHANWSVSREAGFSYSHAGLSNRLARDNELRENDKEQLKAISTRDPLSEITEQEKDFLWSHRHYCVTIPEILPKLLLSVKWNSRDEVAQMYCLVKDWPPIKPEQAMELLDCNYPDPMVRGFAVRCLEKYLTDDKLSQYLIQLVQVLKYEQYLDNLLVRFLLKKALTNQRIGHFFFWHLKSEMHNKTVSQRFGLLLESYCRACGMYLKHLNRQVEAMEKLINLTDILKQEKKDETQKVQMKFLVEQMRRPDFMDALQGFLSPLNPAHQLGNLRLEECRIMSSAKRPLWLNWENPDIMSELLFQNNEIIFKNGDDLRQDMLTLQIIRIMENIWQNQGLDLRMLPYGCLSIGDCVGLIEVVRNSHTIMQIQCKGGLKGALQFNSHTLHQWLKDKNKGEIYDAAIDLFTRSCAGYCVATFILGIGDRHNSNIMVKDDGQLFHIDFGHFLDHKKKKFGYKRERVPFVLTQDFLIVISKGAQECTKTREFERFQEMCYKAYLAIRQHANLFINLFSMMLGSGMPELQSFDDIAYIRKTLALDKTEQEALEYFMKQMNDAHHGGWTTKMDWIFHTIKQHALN

A word on the IC50: it is the concentration needed to halve the response being measured. High values mean a need for much substance, low ones inhibition by little substance. `Cc1cc(-c2ccc3c(n2)-c2sc(-c4ncnn4-c4ccc(F)cc4F)cc2CCO3)cnc1F` displayed an IC50 of less than 1000 nM.
The same measure for `COC1CCN(C(=O)c2nc3c(s2)CCOc2cc(-c4cn[nH]c4)ccc2-3)CC1`: less than 1000 nM; for `O=S1(=O)CCC(n2cc(-c3ccc4c(c3)OCCc3sc(-c5ncnn5CC(F)(F)F)nc3-4)cn2)C1` (configuration not stated): less than 1000 nM.
Consider `CC(C)N(CCO)C(=O)c1nc2c(s1)CCOc1ccc(-c3cnn(C[C@@H](C)O)c3)cc1-2`, for which the IC50 was less than 1000 nM.
For `CN1CCC(N(C)C(=O)c2nc3c(s2)CCOc2cc(-c4cn[nH]c4)ccc2-3)C1` (configuration not stated) the value was less than 1000 nM.
The same measure for `CC(C)n1ncnc1-c1nc2c(s1)CCOc1cc(C3CCN(S(C)(=O)=O)CC3)ccc1-2`: less than 1000 nM.
For `CC(C)n1ncnc1-c1nc2c(s1)CCOc1ccc(-c3cncc(S(C)(=O)=O)c3)cc1-2` the value was less than 1000 nM.
Compound `CNC(=O)C(C)(C)N1CC(c2ccc3c(c2)OCCc2sc(-c4ncnn4C(C)C)nc2-3)C1` displayed an IC50 of less than 1000 nM.
As to `Fc1ccc(-n2ncnc2-c2nc3c(s2)CCOc2cc(-c4cn[nH]c4)ccc2-3)c(F)c1`, the IC50 was less than 1000 nM.
`CC1(C)C(=O)N(CCN)C(=O)N1c1nc2c(s1)CCOc1ccccc1-2` returned an IC50 of less than 1000 nM.
For `C[C@@H]1CCCN1C(=O)c1nc2c(s1)CCOc1cc(-c3cn[nH]c3)ccc1-2` the value was less than 1000 nM; for `Nc1ccc2c(n1)-c1sc(-c3ncnn3-c3ccc(F)cc3F)cc1CCO2`, less than 1000 nM.
On to `CN(CC(=O)N1CCOCC1)C(=O)c1nc2c(s1)CCOc1cc(-c3cn[nH]c3)ccc1-2`, for which the IC50 was less than 1000 nM.
For `COCCNc1ccc(-c2ccc3c(n2)-c2sc(-c4ncnn4-c4ccc(F)cc4F)cc2CCO3)cn1` the value was less than 1000 nM; for `COC[C@@H]1CCCN(C(=O)c2nc3c(s2)CCOc2cc(-c4cn[nH]c4)ccc2-3)C1`, less than 1000 nM.
The same measure for `O=C(c1nc2c(s1)CCOc1cc(-c3cn[nH]c3)ccc1-2)N1CCC(F)(F)CC1`: less than 1000 nM; for `CC(C)n1ncnc1-c1nc2c(s1)CCOc1ccc(-c3ccc(N4CCCC4)nc3)cc1-2`: less than 1000 nM.
Turning to `CN(CCO)C(=O)c1nc2c(s1)CCOc1cc(-c3cn[nH]c3)ccc1-2`, the IC50 was less than 1000 nM.
For `CC(C)n1ncnc1-c1nc2c(s1)CCOc1cc(C3CN(CC(N)=O)C3)ccc1-2` the value was less than 1000 nM; for `Fc1ccc(-n2ncnc2-c2cc3c(s2)-c2nc(NCC4CCCC4)ccc2OCC3)c(F)c1`, less than 1000 nM.
The same measure for `CC(C)n1ncnc1-c1nc2c(s1)CCOc1cc(C3CN(CC(=O)NCC(C)(C)O)C3)ccc1-2`: less than 1000 nM; for `CC(C)(O)Cn1cc(-c2ccc3c(c2)OCCc2sc(N4C(=O)NCC4(C)C)nc2-3)cn1`: less than 1000 nM; for `O=C(c1nc2c(s1)CCOc1cc(-c3cn[nH]c3)ccc1-2)N1CCC[C@@H](C(F)(F)F)C1`: less than 1000 nM.
The same measure for `CC(C)(C)n1nc(N)nc1-c1nc2c(s1)CCOc1cc(-c3cn[nH]c3)ccc1-2`: less than 1000 nM.
Take `C[C@@H]1CN(c2ccc3c(n2)-c2sc(-c4ncnn4-c4ccc(F)cc4F)cc2CCO3)C[C@H](C)N1C`: the IC50 is less than 1000 nM.
The same measure for `COCC(O)CN1CC(c2ccc3c(c2)OCCc2sc(-c4nc(C)nn4C(C)C)nc2-3)C1` (configuration not stated): less than 1000 nM; for `CC(C)n1ncnc1-c1nc2c(s1)CCOc1cc(CN3CCC[C@H]3C(N)=O)ccc1-2`: less than 1000 nM; for `CS(=O)(=O)n1cc(-c2ccc3c(c2)OCCc2sc(-c4ncnn4CC(F)(F)F)nc2-3)cn1`: less than 1000 nM.
As to `Cc1ccc(-c2ccc3c(c2)-c2nc(-c4ncnn4C(C)C)sc2CCO3)cn1`, the IC50 was less than 1000 nM.
`CC(C)(C(=O)NCCO)n1cc(-c2ccc3c(c2)OCCc2sc(-c4ncnn4CC(F)(F)F)nc2-3)cn1` had an IC50 of less than 1000 nM.
For `O=C(c1ccccc1)N1CCN(C(=O)c2nc3c(s2)CCOc2cc(-c4cn[nH]c4)ccc2-3)CC1` the value was less than 1000 nM; for `CN(C)C(=O)N1CCN(C(=O)c2nc3c(s2)CCOc2cc(-c4cn[nH]c4)ccc2-3)CC1`, less than 1000 nM.
The same measure for `NC(=O)c1cnc2c(c1)OCCc1cc(-c3ccc[nH]c3=O)sc1-2`: less than 1000 nM; for `CC(C)n1ncnc1-c1nc2c(s1)CCOc1ccc(C3CCN(C(=O)[C@@H](C)O)CC3)cc1-2`: less than 1000 nM.
The same measure for `CN(C)c1ccc(-c2ccc3c(n2)-c2sc(-c4ncnn4-c4ccc(F)cc4F)cc2CCO3)cn1`: less than 1000 nM; for `Fc1ccc(-n2ncnc2-c2cc3c(s2)-c2nc(-c4ccc(NCCN5CCOCC5)nc4)ccc2OCC3)c(F)c1`: less than 1000 nM; for `CC(C)C(=O)N1CCN(C(=O)c2nc3c(s2)CCOc2cc(-c4cn[nH]c4)ccc2-3)CC1`: less than 1000 nM.
In turn, `CN1C(=O)N(c2nc3c(s2)CCOc2cc(-c4cnn(CC(C)(C)O)c4)ccc2-3)C(C)(C)C1=O` showed an IC50 of less than 1000 nM.
On to `CC(C)n1ncnc1-c1nc2c(s1)CCOc1cc(O[C@H](C)C(N)=O)ccc1-2`, for which the IC50 is less than 1000 nM.
On to `CC(C)N1CC(c2ccc3c(c2)OCCc2sc(-c4ncnn4C(C)C)nc2-3)C1`, for which the IC50 was less than 1000 nM.
For `CC(C)(O)Cn1cc(-c2ccc3c(c2)OCCc2sc(C(=O)N(CCO)C4CCOCC4)nc2-3)cn1` the value was less than 1000 nM; for `OCCNc1ccc(-c2ccc3c(n2)-c2sc(-c4ncnn4-c4ccc(F)cc4F)cc2CCO3)cn1`, less than 1000 nM.
`O=C(c1nc2c(s1)CCOc1cc(-c3cn[nH]c3)ccc1-2)N1CCCC[C@@H]1CO`: the IC50 was less than 1000 nM.
The same measure for `Cc1cncc(-c2ccc3c(c2)-c2nc(-c4ncnn4C(C)C)sc2CCO3)c1`: less than 1000 nM; for `CC(C)n1ncnc1-c1nc2c(s1)CCOc1ccc(C3CN(S(=O)(=O)CCO)C3)cc1-2`: less than 1000 nM.
For `NC(=O)Cn1cc(-c2ccc3c(c2)OCCc2sc(-c4ncnn4CC(F)(F)F)nc2-3)cn1` the value was less than 1000 nM.
For `COc1ccccc1-c1ccc2c(c1)-c1nc(-c3ncnn3C(C)C)sc1CCO2` the value was less than 1000 nM; for `CN1CC(Nc2ccc3c(n2)-c2sc(-c4ncnn4-c4ccc(F)cc4F)cc2CCO3)C1`, less than 1000 nM; for `Nc1ccc(-c2ccc3c(n2)-c2sc(-c4ncnn4-c4ccc(F)cc4F)cc2CCO3)cn1`, less than 1000 nM.
In turn, `COCCNCc1ccc2c(c1)OCCc1sc(-c3nncn3C(C)C)nc1-2` had an IC50 of less than 1000 nM.
For `CN(C)CCCOc1ccc(-c2ccc3c(c2)OCCc2sc(-c4ncnn4CC(F)(F)F)nc2-3)cn1` the value was less than 1000 nM; for `O=C(c1nc2c(s1)CCOc1cc(-c3cn[nH]c3)ccc1-2)N1CCN(c2ncccn2)CC1`, less than 1000 nM; for `CC(C)n1ncnc1-c1nc2c(s1)CCOc1cc(C3CCN(CC(N)=O)CC3)ccc1-2`, less than 1000 nM.
The same measure for `CCN(CC)C(=O)c1nc2c(s1)CCOc1cc(-c3cn[nH]c3)ccc1-2`: less than 1000 nM.
For `Cc1cccc(N2CCN(C(=O)c3nc4c(s3)CCOc3cc(-c5cn[nH]c5)ccc3-4)CC2)n1` the value was less than 1000 nM.
Turning to `CC(C)(O)Cn1cc(-c2ccc3c(c2)OCCc2sc(-c4ncnn4C4CCN(CCO)CC4)nc2-3)cn1`, the IC50 is less than 1000 nM.
For the compound `CC(C)n1ncnc1-c1nc2c(s1)CCOc1ccc(-c3cc[nH]c(=O)c3)cc1-2`, the IC50 is less than 1000 nM.
The compound `CC(C)n1ncnc1-c1nc2c(s1)CCOc1cc(C3(O)CCNCC3)ccc1-2` had an IC50 of less than 1000 nM.
The same measure for `C[C@@H]1CN(c2ccc3c(n2)-c2sc(-c4ncnn4-c4ccc(F)cc4F)cc2CCO3)C[C@H](C)N1C(=O)C(F)(F)F`: less than 1000 nM; for `Cc1nc(-c2nc3c(s2)CCOc2cc(-c4cncn4CCO)ccc2-3)n(C(C)C)n1`: less than 1000 nM.
The same measure for `Cc1nc(-c2nc3c(s2)CCOc2cc(C(C)NC(N)=O)ccc2-3)n(C(C)C)n1` (configuration not stated): less than 1000 nM; for `CN(C[C@H]1Cc2ccccc2O1)C(=O)c1nc2c(s1)CCOc1cc(-c3cn[nH]c3)ccc1-2`: less than 1000 nM; for `CC(C)N1CC[C@H](CN(C)C(=O)c2nc3c(s2)CCOc2cc(-c4cn[nH]c4)ccc2-3)C1`: less than 1000 nM.
For `CC(C)n1ncnc1-c1nc2c(s1)CCOc1cc(C3CN(C(=O)[C@H](C)O)C3)ccc1-2` the value was less than 1000 nM.
For the compound `COc1ccc(CNc2ccc3c(n2)-c2sc(-c4ncnn4-c4ccc(F)cc4F)cc2CCO3)cc1`, the IC50 is less than 1000 nM.
Turning to `N#CCCN(C(=O)c1nc2c(s1)CCOc1cc(-c3cn[nH]c3)ccc1-2)C1CCCC1`, the IC50 was less than 1000 nM.
Consider `CC(C)n1ncnc1-c1nc2c(s1)CCOc1cc(C3CN(C(=O)[C@@H](C)O)C3)ccc1-2`, for which the IC50 was less than 1000 nM.
For the compound `CC(C)n1ccnc1-c1nc2c(s1)CCOc1cc(-c3cnn(CCO)c3)ccc1-2`, the IC50 is less than 1000 nM.
The compound `Cc1nc(-c2nc3c(s2)CCOc2cc(-c4cnn(C5CN(CC(C)(C)O)C5)c4)ccc2-3)n(C(C)C)n1` gave an IC50 of less than 1000 nM.
The same measure for `CC(C)N(CCO)C(=O)c1nc2c(s1)CCOc1ccc(-c3cnc(N)nc3)cc1-2`: less than 1000 nM; for `Cc1nc(-c2nc3c(s2)CCOc2cc(C4COC4)ccc2-3)n(C(C)C)n1`: less than 1000 nM; for `Cc1nc(-c2nc3c(s2)CCOc2cc(C4CN(CCCO)C4)ccc2-3)n(C(C)C)n1`: less than 1000 nM.
For `CC(C)n1ncnc1-c1nc2c(s1)CCOc1cc(CNc3ccon3)ccc1-2` the value was less than 1000 nM.
The same measure for `CS(=O)(=O)N1CCN(c2ccc3c(n2)-c2sc(-c4ncnn4-c4ccc(F)cc4F)cc2CCO3)CC1`: less than 1000 nM.
As for `CC(C)n1ncnc1-c1nc2c(s1)CCOc1ccc(/C=C/S(C)(=O)=O)cc1-2`, the IC50 is less than 1000 nM.
For `CC(=O)N1CC(Nc2ccc3c(n2)-c2sc(-c4ncnn4-c4ccc(F)cc4F)cc2CCO3)C1` the value was less than 1000 nM; for `COc1ncccc1-c1ccc2c(c1)-c1nc(C(=O)N(CCO)C(C)C)sc1CCO2`, less than 1000 nM; for `COCCN1CCC(c2ccc3c(c2)OCCc2sc(-c4ncnn4C(C)C)nc2-3)CC1`, less than 1000 nM.
For `CC(C)n1ncnc1-c1nc2c(s1)CCOc1ccc(C3CCN(CC(N)=O)CC3)cc1-2` the value was less than 1000 nM.
The same measure for `C[C@H](O)C(=O)N1CC(Nc2ccc3c(n2)-c2sc(-c4ncnn4-c4ccc(F)cc4F)cc2CCO3)C1`: less than 1000 nM; for `CC(C)n1ncnc1-c1nc2c(s1)CCOc1ccc(-c3cccn(CCN4CCOCC4)c3=O)cc1-2`: less than 1000 nM.
`CNC(=O)c1ccc2c(c1)OCCc1cc(C(=O)N(C)c3cc(C(=O)NC[C@@H](C)O)ccc3Cl)sc1-2` displayed an IC50 of less than 1000 nM.

Values taken from the Kinase Knowledgebase extract (Sharma et al. 2016).
